{"source": "patent US20260250247A1", "about": "“NOVEL INDOLINE DERIVATIVE AND USE THEREOF” (CK REGEON INC., priority 2023, published 2026)", "key": {"3T3-L1 pre-adipocytes": {"tested_on": "3T3-L1 pre-adipocytes", "test": "Inhibition of adipocyte differentiation and lipid accumulation, Oil Red O", "format": "cell-based", "details": "Mus musculus, 192 h; 3T3-L1, compound 1 μM, MDI-induced differentiation for 8 days, Oil Red O eluted, absorbance 544 nm; read-out: lipid accumulation rate", "description": "3T3-L1 cells were seeded in a 6-well plate at a density of […] cells per well. The cells were grown to 100% confluency in Dulbecco's modified Eagle's medium (DMEM) supplemented with 10% bovine calf serum (BCS; GIBCO). Two days after reaching 100% confluency, differentiation was induced with or without treatment with the indoline compound at a concentration of 1 μM in DMEM containing 10% fetal bovine serum (FBS; GIBCO) and MDI (520 μM methylisobutylxanthine (IBMX; Sigma-Aldrich), 1 μM dexamethasone (Sigma-Aldrich), and 5 μM insulin (GIBCO)). On day 3, the medium was replaced with DMEM containing 10% FBS and 5 μM insulin with or without the indoline compound, and then with a fresh identical medium every 2 days. After differentiation for 8 days, the culture medium was removed, and the cells were washed with PBS and then fixed with 10% formaldehyde for 1 hour. After removing the 10% formaldehyde, the cells were washed thoroughly with distilled water. After that, 60% isopropanol was added and immediately then removed. After washing with distilled water, lipid droplets were stained with an Oil Red O dye solution for 20 minutes and then washed with distilled water. The cells were counterstained with Mayer's hematoxylin. Oil Red O images were visualized using a bright-field microscope (Nikon TE-2000U). To quantify the accumulated lipids, Oil Red O was eluted by adding isopropanol, and absorbance was measured spectrophotometrically at 544 nm using a multi-plate reader.\nAs A3051 (KY19382) and A3334, self-developed and synthesized materials were used. As BIO, or GSK 3 Inhibitor IX, also known as 6-bromoindirubin-3′-oxime, HY-10580 was purchased commercially.\nIn FIG. 2, the undifferentiated group (Un Diff) refers to undifferentiated adipocytes, or preadipocytes that had not been induced to differentiate, and the differentiated group (Diff) refers to fully differentiated adipocytes."}, "[1]": {"tested_on": "F4/80, CD11 b, α-SMA, collagen I, desmin in liver tissue", "test": "Liver immunohistochemistry of inflammatory (F4/80, CD11 b) and fibrosis markers (α-SMA, collagen I, desmin) in MASH mice", "format": "in vivo, C57BL/6N mice", "details": "25 mg/kg/day orally for 4 weeks; vs MASH group (vehicle)", "description": "(§1) Five-week-old wild-type male C57BL/6N mice were purchased from Orient Bio Co., Ltd. They were allowed to acclimate to the laboratory environment for one week. Mice weighing 18-20 g on average were used in the experiment. To ensure ethical and scientific validity and efficient management of animal experiments, the experiment was conducted with the approval of the Institutional Review Board (IACUC-A-202205-1472-01) of Severance Hospital, Yonsei University College of Medicine.\nThe mice were divided into a normal group (NCD) and a high-fat diet group (HFD). The normal group (NCD) was fed a normal chow diet (NCD, Teklad Global 18% protein rodent diet), and the high-fat diet group (HFD) was fed a high-fat diet (HFD, D12492) in which fat accounted for 60% of the total calories, for 8 weeks. […]\n(§2) The sections treated with the primary antibodies were washed with PBS and incubated with biotinylated anti-mouse (1:400; Dako) or anti-rabbit (1:400; Dako) secondary antibodies for 1 hour at room temperature. […] After the staining, images were taken and analyzed using a bright-field microscope (Nikon TE-2000U).\nThrough these experiments, the anti-inflammatory effect of the indoline derivatives of Examples 1 to 4 were analyzed in an animal model of nonalcoholic fatty liver disease. […]"}, "[2]": {"tested_on": "β-catenin and CXXC5 in liver tissue", "test": "Liver immunohistochemistry of β-catenin and CXXC5 in MASH mice", "format": "in vivo, C57BL/6N mice", "details": "25 mg/kg/day orally for 4 weeks", "description": "as §1\nThe mice were divided into a normal group (NCD) and a high-fat diet group (HFD). The normal group (NCD) was fed a normal chow diet (NCD, Teklad Global 18% protein rodent diet), and the high-fat diet group (HFD) was fed a high-fat diet (HFD, D12492) in which fat accounted for 60% of the total calories, for 8 weeks.\nMice induced with metabolic dysfunction-associated steatohepatitis (MASH) (hereinafter, referred to as MASH or MASH group) were prepared by administering CCl4 intraperitoneally twice a week for 4 weeks after feeding the high-fat diet (HFD) for 8 weeks. […]\nas §2"}}, "data": [{"smiles": "N#Cc1ccc2c(c1)/C(=C1/Nc3ccccc3C1=O)C(=O)N2", "note": "[5-cyanoindirubin]", "values": [{"measurement": "activity at 1 µM", "setting": "3T3-L1 pre-adipocytes", "value": 79, "unit": "%"}, {"measurement": "collagen production and α-SMA expression in liver (fibrosis markers)", "setting": "[1]", "value": "did not show any significant difference from the MASH group (vehicle)"}, {"measurement": "expression of inflammatory markers F4/80 and CD11 b in liver", "setting": "[1]", "value": "no significant difference was observed from the MASH group (vehicle)"}, {"measurement": "β-catenin expression in liver, immunohistochemical staining", "setting": "[2]", "value": "no significant difference from the MASH group (vehicle)"}]}]}
